The values that follow come from patent US7265111B2, “Adenosine analogues and their use as pharmaceutical agents” (Sanofi-Aventis Deutschland GmbH, priority 2002, dated 2007).

For one series, the target named is T1, Adenosine A2b receptor (Homo sapiens, UniProt P29275).
T1 construct: expressed in transfected cells; host or cells: CHO (Chinese hamster ovary) cells, stably double-transfected
T1 sequence (P29275 1-332): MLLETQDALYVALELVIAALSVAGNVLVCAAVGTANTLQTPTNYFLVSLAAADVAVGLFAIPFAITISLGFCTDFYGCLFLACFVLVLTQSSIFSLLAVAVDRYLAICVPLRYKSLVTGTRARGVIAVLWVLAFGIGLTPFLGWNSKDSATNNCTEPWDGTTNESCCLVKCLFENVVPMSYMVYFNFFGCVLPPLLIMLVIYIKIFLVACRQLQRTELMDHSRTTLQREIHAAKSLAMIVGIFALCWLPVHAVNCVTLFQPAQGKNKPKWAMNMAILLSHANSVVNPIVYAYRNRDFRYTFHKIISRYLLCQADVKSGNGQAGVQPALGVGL
In words: FLIPR intracellular Ca2+ functional assay, recombinant CHO cells (A2b/Gα16). The format is cell-based. As to conditions: for EC50: read-out: EC50 values (agonist activity at adenosine receptors) A2B. The procedure:
(§1) In Vitro Functional Assays with Recombinant Cell Lines:
(§2) Functional assays were performed by detection of agonist-induced changes in the intracellular concentration of Ca^2+ in recombinant cell lines expressing adenosine receptor subtypes using the FLIPR™ (fluorescence imaging plate reader, Molecular Devices) technology. To allow optimal signalling through Ca^2+, chinese hamster ovary (CHO) cells were stably double-transfected with cDNAs to achieve expression of suitable combinations of adenosine receptor subtypes (A1, A2a, A2b or A3) with either G-protein Gα16 or hybrid protein Gα6qi4myr (German Patent Application no. 100333532.2). Optimal signals were achieved using combinations as follows:
(§3) For assays, recombinant cells were seeded in 96-well dishes (50000 cells/well) and grown overnight. Medium was then removed and cells incubated for 1 hour in buffer containing the dye Fluo-4. After incubation with dye, cells were washed, test compound added and changes in intracellular Ca^2+ concentration measured by FLIPR. Measured values were expressed as % change relative to controls (0%: no test compound added; 100%: 1 μM Adenosine added) and used for calculation of dose-response curves and subsequent determination of EC50 values.

A further series addresses T2, Adenosine A2a receptor (Homo sapiens, UniProt P29274).
T2 construct: expressed in transfected cells; host or cells: CHO (Chinese hamster ovary) cells, stably double-transfected
In words: FLIPR intracellular Ca2+ functional assay, recombinant CHO cells (A2a/Gα16). The format is cell-based. As for the experimental part: as §1, §2, §3

Another series has as its target T3, Adenosine A3 receptor (Homo sapiens, UniProt P0DMS8).
T3 construct: expressed in transfected cells; host or cells: CHO (Chinese hamster ovary) cells, stably double-transfected
T3 sequence (P0DMS8 1-318): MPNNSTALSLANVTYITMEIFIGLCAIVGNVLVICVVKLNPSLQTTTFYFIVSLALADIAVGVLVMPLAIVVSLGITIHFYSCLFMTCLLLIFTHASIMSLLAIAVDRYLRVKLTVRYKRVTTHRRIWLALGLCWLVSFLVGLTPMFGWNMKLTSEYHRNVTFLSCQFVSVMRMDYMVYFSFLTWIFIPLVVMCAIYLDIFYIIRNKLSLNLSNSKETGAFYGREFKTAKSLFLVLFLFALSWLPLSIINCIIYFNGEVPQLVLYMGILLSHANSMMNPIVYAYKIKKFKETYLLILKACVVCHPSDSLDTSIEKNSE
Briefly: FLIPR intracellular Ca2+ functional assay, recombinant CHO cells (A3/Gα6qi4myr). The format is cell-based. As to conditions: for EC50: read-out: EC50 values (agonist activity at adenosine receptors) A3. As for the experimental part:
as §1, §2, §3

In a further series the target is T4, Adenosine A1 receptor (Homo sapiens, UniProt P30542).
T4 construct: expressed in transfected cells; host or cells: CHO (Chinese hamster ovary) cells, stably double-transfected
T4 sequence (P30542 1-326): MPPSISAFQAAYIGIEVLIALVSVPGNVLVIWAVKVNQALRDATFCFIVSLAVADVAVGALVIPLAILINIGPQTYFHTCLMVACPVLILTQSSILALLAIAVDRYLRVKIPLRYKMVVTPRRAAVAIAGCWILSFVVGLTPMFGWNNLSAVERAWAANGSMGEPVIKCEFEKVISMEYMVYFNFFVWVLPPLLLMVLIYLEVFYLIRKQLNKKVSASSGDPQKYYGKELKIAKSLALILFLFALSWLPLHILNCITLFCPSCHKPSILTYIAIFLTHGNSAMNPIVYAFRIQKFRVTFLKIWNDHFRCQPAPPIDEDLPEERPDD
In words: FLIPR intracellular Ca2+ functional assay, recombinant CHO cells (A1/Gα6qi4myr). The format is cell-based. As to conditions: read-out: EC50 values (agonist activity at adenosine receptors) A1. As for the experimental part:
as §1, §2, §3

The next series has as its system isolated rat adipocytes. In words: Antilipolytic effect in isolated rat adipocytes. As to conditions: Adipocyte, adenosine deaminase-induced lipolysis (glycerol and free fatty acid release). The format is cell-based. As for the experimental part:
E. Antilipolytic Effect in Isolated Rat Adipocytes:
For the preparation of isolated rat adipocytes, epididymal fat pads were obtained from male Sprague-Dawley rats (150-180 g) killed by decapitation. The main fat pad blood vessel was removed with forceps and the pads were cut into small pieces. Digestion was carried out at 37° C. in a shaking water bath by treating 1 g of sliced pad for 20 min with 3 ml of 1 mg/ml collagenase (type I, CLS, Worthington) in 1% BSA, fraction V, in KRH (Krebs-Ringer solution buffered with 25 mM HEPES/KOH, pH 7.4, containing 2.5 mM CaCl2, 2 mM glucose, 1 mM sodium pyruvate, 0.5 units/ml adenosin deaminase and 200 nM phenylisopropyl adenosine). The adipocytes were filtered through nylon mesh of sufficient pore size that no pressure other than gentle teasing with a plastic spatula was necessary for the cells to pass through. After three cycles of centrifugation (500 g, 1 min), aspiration of the infranatant. and resuspension in KRH containing 1% BSA, the cells were suspended in KRH containing 4% defatted BSA. Small aliquots of the final suspension were aspirated into capillary hematocrit tubes and centrifuged for 1 min in a Microhematocrit centrifuge in order to determine what fraction of the suspension consisted of fat cells. Results expressed as activities per unit volume of packed adipocytes (corresponding to equivalent numbers of cells) are based on this centrifugation procedure. Lipolysis was initiated by addition of a 100 μl aliquot of the adipocyte suspension to 700 μl of incubation medium [prewarmed to 37° C. and consisting of KRH, 4% defatted BSA and 1 U/ml adenosine deaminase (type I, Sigma)], with or without addition of 8 μl of a solution of the appropriate test substance in 100% DMSO (at a concentration corresponding to 100 times its concentration in the final mixture). […] Incubations were performed in 5 ml polypropylene vials agitated in a shaking water bath (140 cycles/min, amplitude 4.5 cm) at 37° C. for 20, 40, and 60 min. The incubation was terminated by addition of 200 μl of 50 mM EDTA buffered to pH 7.4 with Tris. For the glycerol determination, the whole mixture was mixed rapidly and homogenized with a ground glass pestle in a 1 ml ground glass homogenizing tube (10 pulses). The homogenate was transferred immediately to a 1.5 ml Eppendorf cup precooled to 4° C., after which the extracts were maintained at 4° C. The homogenate was then centrifuged (10,000 g, 15 min) and the infranatant below the fat cake removed with a glass Pasteur pipette. taking care not to aspirate the membrane pellet. and transferred to another Eppendorf cup. 300 μl aliquots of the infranatant were added to 300 μl volumes of 10% (w/v) HClO4. The precipitate was in each case removed by centrifugation (10,000 g, 2 min) and the supernatant neutralized with 20% (w/v) KOH, followed by addition of 50 μl of 1 M Tris/HCl, pH 7.4, A 50 μl sample was then incubated (5 min, 37° C.) with 1 ml of 0.1 M HEPES/KOH, pH 7.5, containing 2 mM ATP, 0.5 mM 4-aminoantipyrine, 1 mM EDTA, 0.5 U glycerol kinase, 4 U glycerol-3-phosphate oxidase, 2 U peroxidase, 2.7 mM p-chlorophenol, 0.04% Triton X-100 and 2 mM MgSO4.7H2O, and the glycerol content determined from the absorbance at 505 nm. For the determination of free fatty acids, 300 μl aliquots of the incubation mixture were added to 3 ml of chloroform/heptane (1:1 v/v) containing 2% (v/v) methanol. and the liberated free fatty acids determined with copper reagent and bathocuproine. The inhibitory activities of the cyclipostins were calculated from the combined results (glycerol and free fatty acid release) by plotting the log of the dose against the percent response (with the adenosine deaminase-induced lipolysis set at 100%). Data in the linear portion of the log (dose)-percent response curves were analyzed using parallel-line bioassay techniques.

Series [1] relates to isolated guinea pig atrium. Briefly: Effect on the isolated guinea pig atrium (contractile force, heart rate). As for the experimental part:
D. Effect on the Isolated Guinea Pig Atrium:
Guinea pigs of either sex were killed by a blow on the back of the neck and exsanguinated.
Their heart was taken out and the atria removed. The preparation (atrium) was immediately transferred to Ringer solution (JT 431) which was at a temperature of 32° C. and was bubbled with a mixture of 95% O2 and 5% CO2. The composition of the solution in […] was: NaCl 9.0; KCl 0.42 CaCl2 0.24; NaHCO3 0.2; glucose 1.0. The atrium beats spontaneously with an initial tension of 500 mg. The contractile force and the heart rate was recorded with a computer program and automatically calculated (B-mon and A-mon PC programs. Fa. Jäckel. Hanau. GERMANY). After equilibration, the test compound was added to a final bath concentration. N was 4-6 per concentration.

SMILES strings stand for the structures. Where only a bound is given, the exact number is not on record here.

T2 sequence (P29274 whole entry): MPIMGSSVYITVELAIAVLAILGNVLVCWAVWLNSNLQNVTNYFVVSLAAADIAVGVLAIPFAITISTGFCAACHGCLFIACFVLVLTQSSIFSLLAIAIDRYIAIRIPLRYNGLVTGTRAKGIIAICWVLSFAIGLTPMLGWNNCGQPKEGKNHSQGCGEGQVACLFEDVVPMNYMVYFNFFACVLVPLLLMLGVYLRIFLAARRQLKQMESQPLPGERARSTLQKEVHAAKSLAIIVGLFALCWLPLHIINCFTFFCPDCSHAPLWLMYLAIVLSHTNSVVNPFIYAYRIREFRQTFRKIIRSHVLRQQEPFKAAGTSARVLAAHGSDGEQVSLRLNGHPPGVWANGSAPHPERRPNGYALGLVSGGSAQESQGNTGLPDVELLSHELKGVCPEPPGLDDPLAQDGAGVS

As for `O[C@@H]1[C@@H](CF)C[C@@H](n2cnc3c(N[C@H]4CCN(c5cccc(Cl)c5)C4)ncnc32)[C@@H]1O` [Example 1, (1R,2S,3R,5S)-3-{6-[1-(3-chloro-phenyl-1-yl)-pyrrolidin-3(S)-ylamino]-purin-9-yl}-5-fluoromethyl-cyclopentane-1,2-diol], the EC50 on Adenosine A2b receptor is more than 30000 nM; on Adenosine A3 receptor, more than 50000 nM; at Adenosine A1 receptor it was 150 nM. Moreover, the “EC50 values (agonist activity at adenosine receptors) A2A” value on Adenosine A2a receptor is “inactive”. Also, 5 nM corresponded to half-maximal inhibition in the series on isolated rat adipocytes (IC50). Moreover, the Heart rate entry in series [1] (at 1–100 μM) was “no effect at 1–100 μM”.

In the case of `CC[C@H](Cc1sccc1Cl)Nc1ncnc2c1ncn2[C@@H]1C[C@H](CF)[C@@H](O)[C@H]1O` [Example 2, (1R,2S,3R,5S)-3-{6-[(R)-1-(3-chloro-thiophen-2-ylmethyl) -propylamino]-purin-9-yl}-5-fluoromethyl-cyclopentane-1,2-diol], the EC50 at Adenosine A2b receptor is 3400 nM; on Adenosine A3 receptor, more than 40000 nM; at Adenosine A1 receptor it was 20 nM. Moreover, on Adenosine A2a receptor, the “EC50 values (agonist activity at adenosine receptors) A2A” value is “inactive”. The same compound showed an IC50 with isolated rat adipocytes of 20 nM. In addition, the Contractile force in series [1] (at 10 μM) was −4% at 10 μM. Moreover, the Heart rate in series [1] (at 10 μM) is on record as −4% at 10 μM.

As to `O[C@@H]1[C@@H](COC(F)(F)F)C[C@@H](n2cnc3c(N[C@H]4CCN(c5cccc(Cl)c5)C4)ncnc32)[C@@H]1O` [Example 3, (1R,2S,3R,5R)-3-{6-[1-(3-chloro-phenyl-1-yl)-pyrrolidin-3(S)-ylamino]-purin-9-yl}-5-trifluoromethoxymethyl-cyclopentane-1,2-diol], the “EC50 values (agonist activity at adenosine receptors) A2B” value on Adenosine A2b receptor was “inactive”. For the same compound, the EC50 was more than 30000 nM on Adenosine A2a receptor (read-out: EC50 values (agonist activity at adenosine receptors) A2A) and 3690 nM at Adenosine A1 receptor. The “EC50 values (agonist activity at adenosine receptors) A3” value at Adenosine A3 receptor was “inactive”.

In the case of `O[C@@H]1[C@@H](CF)C[C@@H](n2cnc3c(N[C@H]4CCN(c5ccc(C(F)(F)F)cn5)C4)ncnc32)[C@@H]1O` [Example 4, (1R,2S,3R,5S)-3-{6-[1-(5-trifluoromethyl-pyridin-2-yl)-pyrrolidin-3(S)-ylamino]-purin-9-yl}-5-fluoromethyl-cyclopentane-1,2-diol], the EC50 is more than 30000 nM at Adenosine A2b receptor, more than 50000 nM on Adenosine A3 receptor and 1610 nM at Adenosine A1 receptor. Also, the “EC50 values (agonist activity at adenosine receptors) A2A” value on Adenosine A2a receptor was “Inactive”. Besides, in the series on isolated rat adipocytes, the IC50 was 100 nM. The Contractile force in series [1] (at 10 μM) is −7% at 10 μM. Further, the Heart rate entry in series [1] (at 1–100 μM) is on record as “no effect at 1–100 μM”.

Take `O[C@@H]1[C@@H](CF)C[C@@H](n2cnc3c(N[C@H]4CCN(c5ccc(Cl)cn5)C4)ncnc32)[C@@H]1O` [Example 6, (1R,2S,3R,5S)-3-{6-[1-(5-chloro-pyridin-2-yl)-pyrrolidin-3(S) -ylamino]-purin-9-yl}-5-fluoromethyl-cyclopentane-1,2-diol]: the EC50 is more than 30000 nM at Adenosine A2b receptor and 1250 nM at Adenosine A1 receptor. The “EC50 values (agonist activity at adenosine receptors) A2A” value at Adenosine A2a receptor is given as “Inactive”. Also, the “EC50 values (agonist activity at adenosine receptors) A3” value at Adenosine A3 receptor is “inactive”. Also, the half-inhibitory concentration (IC50) in the series with isolated rat adipocytes came to 10 nM. Moreover, the Contractile force in series [1] (at 30 μM) is listed as −3% at 30 μM. The Heart rate result in series [1] (at 1–100 μM) is “no effect at 1–100 μM”.

Regarding `O[C@@H]1[C@@H](COC(F)(F)F)C[C@@H](n2cnc3c(N[C@H]4CCN(c5ccc(C(F)(F)F)cn5)C4)ncnc32)[C@@H]1O` [Example 8, (1R,2S,3R,5R)-3-{6-[1-(5-trifluoromethyl-pyridin-2-yl)-pyrrolidin-3(s)-ylamino]-purin-9-yl}-5-trifluoromethoxymethyl-cyclopentane-1,2-diol], the melting point is 142 °C.

On to `O[C@@H]1[C@@H](COC(F)(F)F)C[C@@H](n2cnc3c(N[C@H]4CCN(c5ccc(Cl)cn5)C4)ncnc32)[C@@H]1O` [Example 9, (1R,2S,3R,5R)-3-{6-[1-(5-chloro-pyridin-2-yl)-pyrrolidin-3(S) -ylamino]-purin-9-yl}-5-trifluoromethoxymethyl-cyclopentane-1,2-diol], for which the melting point amounted to 130 °C.

As for `CC[C@H](Cc1sccc1Cl)Nc1ncnc2c1ncn2[C@@H]1C[C@H](COC(F)(F)F)[C@@H](O)[C@H]1O` [Example 11, (1R,2S, 3R, 5R)-3-{6-[(R)-1-(3-chloro-thiophen-2-ylmethyl) -propylamino]-purin-9-yl}-5-trifluoromethoxymethyl-cyclopentane-1,2-diol], the melting point worked out at 140 °C.
